Each compound was assayed against human RIP1 kinase domain (2-375) (Homo sapiens (Human), UniProt Q13546) (assay: RIP1 kinase inhibition assay (biochemical, Transcreener ADP assay)). Details: RIP1 Ki, tight-binding apparent inhibition constant (Ki app, Morrison equation); 50 nM enzyme, 50 uM ATP, 2 hours incubation, fluorescence polarization.
Protocol: Example 45: RIP1 Kinase Inhibition Assays (Biochemical Assay)
The compounds of the present invention were tested for their capacity to inhibit RIP1K activity as described below.
The ability of the receptor interacting protein kinase (RIPK1) to catalyze the hydrolysis of adenosine-5′-triphosphate (ATP) is monitored using the Transcreener ADP (adenosine-5′-diphosphate) assay (BellBrook Labs). Purified human RIP1 kinase domain (2-375) (50 nM) derived from a baculovirus-infected insect cell expression system is incubated with test compounds for 2 hours in 50 mM Hepes buffer (pH 7.5) containing 30 mM MgCl2, 1 mM dithiothreitol, 50 uM ATP, 0.002% Brij-35, and 0.5% dimethyl sulfoxide (DMSO). Reactions are quenched by the addition of 1× Bell Brooks Stop buffer B (20 mM Hepes (ph 7.5), 40 mM ethylenediaminetetraacetic acid and 0.02% Brij-35) containing an additional 12 mM EDTA and 55 ug/mL ADP2 antibody and 4 nM ADP-AlexaFluor® 633 tracer. The tracer bound to the antibody is displaced by the ADP generated during the RIP1K reaction, which causes a decrease in fluorescence polarization that is measured by laser excitation at 633 nm with a FP microplate reader M1000. Fractional activity was plotted against test article concentration. Using Genedata Screener software (Genedata; Basel, Switzerland), the data were fit to the tight-binding apparent inhibition constant (Ki^app) Morrison equation [Williams, J. W. and Morrison, J. F. (1979) The kinetics of reversible tight-binding inhibition. Methods Enzymol 63: 437-67]. The following equation was used to calculate fractional activity and Ki^app: […]
where [E]T and [I]T are the total concentrations of active enzyme and test article, respectively. […]

Chain of human RIP1 kinase domain (2-375) (Q13546 2-375): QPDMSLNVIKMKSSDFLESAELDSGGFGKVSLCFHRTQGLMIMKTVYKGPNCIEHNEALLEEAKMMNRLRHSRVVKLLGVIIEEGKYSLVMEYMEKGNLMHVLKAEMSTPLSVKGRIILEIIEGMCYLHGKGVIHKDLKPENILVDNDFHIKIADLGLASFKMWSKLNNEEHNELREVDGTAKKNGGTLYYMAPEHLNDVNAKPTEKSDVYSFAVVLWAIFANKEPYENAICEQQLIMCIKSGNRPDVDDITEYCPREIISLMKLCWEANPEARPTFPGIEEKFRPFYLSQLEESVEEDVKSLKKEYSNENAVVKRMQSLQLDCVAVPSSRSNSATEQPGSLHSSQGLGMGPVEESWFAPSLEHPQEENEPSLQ

Ki | Compound
0.028 µM | CN1C(=O)[C@@H](NC(=O)c2nc3n(n2)[C@@H](c2ccccc2)CC3(F)F)CCn2nccc21 (racemic) [Example #43, rac-(5R)-7,7-difluoro-5-phenyl-N-[rac-(6S)-4-methyl-5-oxo-7,8-dihydro-6H-pyrazolo[1,5-a][1,3]diazepin-6-yl]-5,6-dihydropyrrolo[1,2-b][1,2,4]triazole-2-carboxamide]
0.005 µM | CN1C(=O)[C@@H](NC(=O)c2nc3n(n2)[C@H](c2ccccc2)C[C@@H]3F)COc2ccccc21 (single isomer, unassigned) [Example #40]

Same assay, conditions: tight-binding apparent inhibition constant (Ki app, Morrison equation); 50 nM enzyme, 50 uM ATP, 2 hours incubation, fluorescence polarization; read-out: RIP1 Ki

Ki | Compound
0.026 µM | CN1C(=O)[C@@H](NC(=O)c2ncn(Cc3ccccc3F)n2)CCc2nn(C)cc21 (single isomer, unassigned) [Example #21]
0.031 µM | O=C(N[C@H]1CCc2cc(F)cc(F)c2NC1=O)c1nc2n(n1)[C@H](c1ccccc1)C[C@H]2F (single isomer, unassigned) [Example #34]
0.046 µM | CN1C(=O)[C@@H](NC(=O)c2ncn(Cc3ccccc3)n2)CCc2nn(C)cc21 (single isomer, unassigned) [Example #20]
0.012 µM | CN1C(=O)[C@@H](NC(=O)c2nc3n(n2)C(c2ccccc2)CC3F)COc2ccccc21 (stereo partly drawn) [Example #28, 7-fluoro-5-phenyl-N-[(3S)-5-methyl-4-oxo-2,3-dihydro-1,5-benzoxazepin-3-yl]-6,7-dihydro-5H-pyrrolo[1,2-b][1,2,4]triazole-2-carboxamide]

Source: US11072607B2, “Inhibitors of RIP1 kinase and methods of use thereof” (priority 2016, dated 2021)
